Data published in patent US11654138B2, “Therapeutic agents for treating and preventing autoimmune diseases and cancer and a screening method” (KING FAISAL UNIVERSITY, priority 2019, dated 2023).

Columns and labels:
[1] = tested on: differentiated Th17 cells; assay: Th17 differentiation of naïve CD4+CD62L+ T cells; assay type: cell-based, mice; conditions: 40 μM, 72 h
Protocol: The peritoneal macrophages were stimulated in vitro with 0.5 μg/mL lipopolysaccharides (LPS) (Sigma-Aldrich) for 24 h. The CD4^+ CD62L^+ T cells were isolated and purified from spleen using the MACS isolation kit (Miltenyi). The T cells were cultured in the presence of anti-CD3/CD28 dynabeads (Invitrogen), recombinant mouse IL-6 (30 ng/mL; R&D Systems), recombinant transforming growth factor-β (TGF-β) (4 ng/mL; R&D Systems), anti-interferon-γ (IFN-γ) and anti-IL-4 (10 μg/mL; Biolegend) for 72 h to generate Th17 cells.
The mRNAs and cytokines were quantified as follows. A first strand of cDNA was synthesized from total RNA by using the TaqMan reverse transcription kit. The cDNA was amplified in the real-time PCR system ViiA7 using TaqMan gene expression assays of OX40 (Mm01261022_m1), Stat3 (Mm01219775_m1) and the endogenous control Gapdh (Mm99999915_g1). Kits, probes and reagents were from Applied Biosystems. The relative expression of mRNAs was calculated by ΔΔCt method. For cytokines quantification in serum and cell culture supernatants, ELISA kits of IL-17a, IL-6, TNF-α (Invitrogen) were used following the manufacturer's instructions.
Flow cytometry analysis was conducted using CD4^+ T cells cultured under Th17 cell-inducing conditions or CD4^+ T cells derived from CNS, which were fixed and stained with Per-CP-Cy5.5-conjugated anti-CD4 antibodies and PE-conjugated anti-OX40 antibodies (Biolegend). Analysis was carried out using Flowsight (Amnis).
The anti-inflammatory activity of the Arid5a inhibitor POE was tested in vitro by measuring secretion of pro-inflammatory cytokines by macrophages and differentiated Th17 cells. Briefly, peritoneal macrophages were stimulated with LPS (0.5 μg/mL) for 24 h in presence or absence of POE (40 μM). […] The percentage of CD4^+OX40^+ T cells in the polarized Th17 cells was determined using flow cytometry; the results are shown in FIG. 3D. Stat3 mRNA expression in the polarized Th17 cells was quantified by real-time PCR and normalized to Gapdh mRNA; the results are shown relative to those of untreated Th17 cells in FIG. 3E.

IMQ-induced psoriasis = IMQ-induced psoriasis model; assay type: in vivo, male BALB/c mice
Protocol: Experimental psoriasis was induced following a modified method described previously (Sun et al. 2013). To induce disease in male BALB/c mice (6-8 weeks; n=6), imiquimod (IMG; Sichuan Med-Shine Pharmaceutical) at 5% was applied topically at 20 mg/cm^2 on the inside of the right ear for 8 consecutive days. An evaluation system for assessment of erythema and thickness of the ear was developed. Erythema was assessed using a table with red […] (0-4) and ear thickness (0-4) measured using a digital caliber on days 2, 4, 6, and 8 after first IMQ application. The sum of the two parameters scores (ranging from 0-8) was used to indicate the overall clinical score. Treatment ointment was prepared by mixing 1 mg of DMSO-dissolved POE or its representative analogs including POE A2 or POE A3 with 20 gm of Vaseline Petroleum Jelly Original (vehicle, Unilever Inc.); the mixture was then incubated at room temperature overnight. From day 0 to day 8 the mice were treated topically with the treatment ointment (40 mg/cm^2) or Vaseline (IMQ/control). The mRNAs encoding Il6 and Il17a were isolated from whole biopsies of the ear (day 8) and reverse transcribed to make cDNA. The cDNA was then amplified by real-time PCR using TaqMan Gene Expression Assays (Mm00446190_ml, Mm00439618_ml, respectively; Applied Biosystems). The relative expression of mRNAs was calculated by the ΔΔCt method and presented relative to that of IMQ control mice.

Pocket X-mutant Arid5a = molecular target: T1, Pocket X-mutant Arid5a (Mus musculus, UniProt Q3U108, F56C/L84A/V134A/Y137A); assay: Luciferase assay on Pocket X-mutant Arid5a (Phe56, Leu84, Val134, Tyr137 substitutions); assay type: cell-based; conditions: 40 μM
T1 construct: Flag; expressed in transfected cells; host or cells: HEK293T
T1 sequence (Q3U108 1-590 F56C/L84A/V134A/Y137A): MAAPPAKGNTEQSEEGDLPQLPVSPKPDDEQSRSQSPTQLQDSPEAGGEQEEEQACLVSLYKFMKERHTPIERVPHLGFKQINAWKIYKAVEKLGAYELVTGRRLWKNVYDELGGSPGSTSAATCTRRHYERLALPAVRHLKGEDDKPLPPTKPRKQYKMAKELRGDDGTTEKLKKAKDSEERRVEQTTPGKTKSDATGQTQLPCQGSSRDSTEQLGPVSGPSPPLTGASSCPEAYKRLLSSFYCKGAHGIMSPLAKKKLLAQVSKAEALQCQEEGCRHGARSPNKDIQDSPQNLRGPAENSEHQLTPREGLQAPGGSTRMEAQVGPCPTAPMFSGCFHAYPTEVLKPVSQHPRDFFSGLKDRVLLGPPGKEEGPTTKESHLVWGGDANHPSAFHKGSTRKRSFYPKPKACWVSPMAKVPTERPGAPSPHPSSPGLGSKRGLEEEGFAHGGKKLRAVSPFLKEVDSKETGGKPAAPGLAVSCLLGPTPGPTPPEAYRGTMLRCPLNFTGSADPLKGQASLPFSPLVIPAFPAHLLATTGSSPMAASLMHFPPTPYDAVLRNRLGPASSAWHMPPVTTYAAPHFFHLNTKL
Description: Briefly, HEK293T cells were transfected with luciferase pGL-3 and empty pcDNA3.1 plasmids (Control), or pGL-3 plasmid encoding the 3′UTR of OX40, Il6 or Stat3, together with Arid5a-expressing pcDNA3.1 plasmid. Substitution mutations were introduced to the wild-type (WT) Arid5a at Phe56, Leu84, Val134 and Tyr137. Single point mutations were used to substitute Phe56 (TTC) with Cys (TGC) and Val134 (GTC) with Ala (GCC). Sequential point mutations were used to substitute Leu84 (CTG) with Ala (GCG) and Tyr137 (TAT) with Ala (GCT). Luciferase activity from cell lysates is shown relative to Control in FIGS. 2A-2C.

[2] = topical ointment, day 8, FIG. 8B

Compound: O=C(CSc1nnc(-c2ccncc2)o1)c1ccccc1 [POE, 1-Phenyl-2-(5-pyridin-4-yl-[1,3,4]oxadiazol-2-ylsulfanyl)-ethanone]
- Level of IL-17 in cell culture supernatant of polarized Th17 cells ([1]; compared to untreated Th17 cells, FIG. 3C): reduces the level of IL-17
- Frequency of CD4+OX40+ T cells in polarized Th17 cells ([1]; flow cytometry, FIG. 3D): reduces the frequency of CD4^+OX40^+ T cells
- Expression of Stat3 mRNA in polarized Th17 cells ([1]; real-time PCR normalized to Gapdh, FIG. 3E): reduces the expression of Stat3 mRNA
- Clinical scores (erythema and thickness of the right ear) (IMQ-induced psoriasis; topical ointment 40 mg/cm^2 day 0 to 8, vs Vaseline, FIG. 8A): comparably reduced clinical scores
- Il6 mRNA expression in whole biopsies of the right ear (IMQ-induced psoriasis; [2]): suppressed mRNA expression
- Il17a mRNA expression in whole biopsies of the right ear (IMQ-induced psoriasis; [2]): suppressed mRNA expression
- Inhibitory effect on stabilizing function of mutant Arid5a on OX40 3′UTR (Pocket X-mutant Arid5a; mutations at Phe56, Leu84, Val134, Tyr137, FIG. 2A): abolish the inhibitory effects of POE
- Inhibitory effect on stabilizing function of mutant Arid5a on Il6 3′UTR (Pocket X-mutant Arid5a; mutations at Phe56, Leu84, Val134, Tyr137, FIG. 2B): abolish the inhibitory effects of POE
- Inhibitory effect on stabilizing function of mutant Arid5a on Stat3 3′UTR (Pocket X-mutant Arid5a; mutations at Phe56, Leu84, Val134, Tyr137, FIG. 2C): abolish the inhibitory effects of POE
